According to patent publication US10508092B2, “Synthesis of novel analogs of diptoindonesin G, compounds formed thereby, and pharmaceutical compositions containing them” (Wisconsin Alumni Research Foundation, priority 2016, dated 2019):

Legend:
[1] = Pharmacokinetics (plasma concentration by HPLC and LC/MS) in mice; type: in vivo; conditions: mouse
ERα Y537S = experiment: ERE-Luciferase activity of ERα Y537S in T47D cells; type: cell-based, human
Experimental: FIG. 6 is a histogram depicting Dip G- and Dip G-D1-inhibited E2-dependent ERE-Luciferase activities of wildtype ERα or ERα Y537S in T47D cells. Cells were co-treated with 10 nM E2 and Dip G or Dip G-D1 (10 μM) for 24 hrs. The experiments were performed in triplicate. Data are represented as mean±SD, n=3.
See Merenbakh-Lamin, K., Ben-Baruch, N., Yeheskel, A., Dvir, A., Soussan-Gutman, L., Jeselsohn, R., Yelensky, R., Brown, M., Miller, V. A., Sarid, D. et al. (2013) “D538G mutation in estrogen receptor-alpha: A novel mechanism for acquired endocrine resistance in breast cancer,” Cancer research, 73:6856-6864 and Jeselsohn, R., Yelensky, R., Buchwalter, G., Frampton, G., Meric-Bernstam, F., Gonzalez-Angulo, A. M., Ferrer-Lozano, J., Perez-Fidalgo, J. A., Cristofanilli, M., Gomez, H. et al. (2014) “Emergence of constitutively active estrogen receptor-alpha mutations in pretreated advanced estrogen receptor-positive breast cancer,” Clinical cancer research: an official journal of the American Association for Cancer Research, 20:1757-1767. Using these ERα mutant expressing cell lines, we will: (a) compare ERα degradation rate induced by fulvestrant, Dip G and Dip G-D1 using ELISA assay as shown in FIG. 5; (b) measure IC50 of Dip G and Dip G analogues to inhibit ERα transcriptional activity in luciferase assay.

ERα [2] = biological target: T1, ERα (Homo sapiens, UniProt P03372); experiment: Direct binding to ERα
T1 sequence (P03372 1-595): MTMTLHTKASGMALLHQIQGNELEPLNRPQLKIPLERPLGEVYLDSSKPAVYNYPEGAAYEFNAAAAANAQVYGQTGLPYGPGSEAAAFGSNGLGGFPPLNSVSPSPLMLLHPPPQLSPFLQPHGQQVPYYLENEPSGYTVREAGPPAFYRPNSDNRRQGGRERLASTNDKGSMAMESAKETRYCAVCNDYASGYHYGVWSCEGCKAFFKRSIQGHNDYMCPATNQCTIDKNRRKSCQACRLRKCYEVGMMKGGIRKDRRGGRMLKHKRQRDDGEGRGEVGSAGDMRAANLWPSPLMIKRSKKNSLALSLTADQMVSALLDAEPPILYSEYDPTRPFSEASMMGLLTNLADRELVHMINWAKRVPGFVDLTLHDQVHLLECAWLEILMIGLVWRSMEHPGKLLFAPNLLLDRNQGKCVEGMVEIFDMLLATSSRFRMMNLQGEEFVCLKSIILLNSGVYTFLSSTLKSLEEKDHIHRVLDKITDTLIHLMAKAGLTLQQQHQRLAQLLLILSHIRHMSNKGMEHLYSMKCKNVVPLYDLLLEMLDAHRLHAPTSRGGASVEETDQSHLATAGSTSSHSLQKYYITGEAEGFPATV

CHIP ubiquitin E3 ligase [3] = biological target: T2, CHIP ubiquitin E3 ligase (Homo sapiens, UniProt Q9UNE7); conditions: Zhao et al. 2015; cited from earlier work
T2 sequence (Q9UNE7 1-303): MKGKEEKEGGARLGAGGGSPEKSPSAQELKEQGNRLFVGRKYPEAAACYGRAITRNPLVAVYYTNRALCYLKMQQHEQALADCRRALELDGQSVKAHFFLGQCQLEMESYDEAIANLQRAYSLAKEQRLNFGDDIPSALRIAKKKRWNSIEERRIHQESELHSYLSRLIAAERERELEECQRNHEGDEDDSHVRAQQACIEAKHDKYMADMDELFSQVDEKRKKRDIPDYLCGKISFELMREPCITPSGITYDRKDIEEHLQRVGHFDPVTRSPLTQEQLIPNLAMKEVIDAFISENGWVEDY

CHIP ubiquitin E3 ligase [4] = biological target: T2, CHIP ubiquitin E3 ligase; experiment: Binding to CHIP ubiquitin E3 ligase
ERα [5] = experiment: ERα transcriptional activity in MCF7 cells; type: cell-based, human
ERαY537S mutant protein = experiment: ELISA of ERα protein in T47D-ERαY537S cells; type: cell-based, human; conditions: 24 hrs, FIG. 5
Experimental: T47D cells were treated with DMSO, Fulvestrant, Dip G and a Dip G derivative (Dip G-D1, compound 17) for 24 hrs. ERα protein amounts in cell lysate were quantified using ELISA kit (R&D systems) and normalized to standard curve using purified ERα protein. The experiments were performed in triplicate. Data are represented as mean±SD, n=3.
(T47D ERα WT is available from the American Type Culture Collection, Manassas, Va.; accession no. HTB-133. The T47D ERα Y537S cell line is described in Wardell et al 2015) “Efficacy of SERD/SERM Hybrid-CDK4/6 Inhibitor Combinations in Models of Endocrine Therapy-Resistant Breast Cancer,” Clin Cancer Res. 21(22):5121-5130. […] McCormack, P. and Sapunar, F. (2008) “Pharmacokinetic profile of the fulvestrant loading dose regimen in postmenopausal women with hormone receptor-positive advanced breast cancer,” Clinical breast cancer 8:347-351.

Compound: O=C1c2c(O)cc(O)cc2-c2c(-c3ccc(O)cc3)oc3cc(O)cc1c23 [Dip G, diptoindonesin G]
- half-life [1]: 1 h
- E2-dependent ERE-Luciferase activity of ERα Y537S (ERα Y537S; T47D cells, co-treated with 10 nM E2, 10 μM, 24 hrs): inhibited
- ligand-independent transcription activity of ERα Y537S mutant (ERα Y537S; T47D expressing ERα Y537S, preliminary data): can be inhibited
- direct binding to ERα (ERα [2]): does not directly bind
- target E3 ubiquitin ligase CHIP (STUB1) (CHIP ubiquitin E3 ligase [3]): found to target
- binding to CHIP ubiquitin E3 ligase (CHIP ubiquitin E3 ligase [4]): binds
- ERα transcriptional activity (ERα [5]): decreases ERα transcriptional activity
- degradation of ERαY537S mutant protein (ERαY537S mutant protein): more effective than 100 nM fulvestrant
